From patent publication US7094773B2, “LTA4 hydrolase inhibitors” (Institut National de la Santa et de la rescherche Medicale …, priority 1999, dated 2006)
Where a name gives a salt, the structure may show the parent alone.

Key:
[1] = molecular target: T1, human recombinant LTA4 hydrolase (Homo sapiens, UniProt P09960); experiment: Inhibition of the aminopeptidase activity of recombinant LTA4 hydrolase (fluorimetric, Ala-AMC substrate); assay type: biochemical; details: in vitro
T1 construct: made in house; host or cells: E. coli JM109
T1 sequence (P09960 1-611): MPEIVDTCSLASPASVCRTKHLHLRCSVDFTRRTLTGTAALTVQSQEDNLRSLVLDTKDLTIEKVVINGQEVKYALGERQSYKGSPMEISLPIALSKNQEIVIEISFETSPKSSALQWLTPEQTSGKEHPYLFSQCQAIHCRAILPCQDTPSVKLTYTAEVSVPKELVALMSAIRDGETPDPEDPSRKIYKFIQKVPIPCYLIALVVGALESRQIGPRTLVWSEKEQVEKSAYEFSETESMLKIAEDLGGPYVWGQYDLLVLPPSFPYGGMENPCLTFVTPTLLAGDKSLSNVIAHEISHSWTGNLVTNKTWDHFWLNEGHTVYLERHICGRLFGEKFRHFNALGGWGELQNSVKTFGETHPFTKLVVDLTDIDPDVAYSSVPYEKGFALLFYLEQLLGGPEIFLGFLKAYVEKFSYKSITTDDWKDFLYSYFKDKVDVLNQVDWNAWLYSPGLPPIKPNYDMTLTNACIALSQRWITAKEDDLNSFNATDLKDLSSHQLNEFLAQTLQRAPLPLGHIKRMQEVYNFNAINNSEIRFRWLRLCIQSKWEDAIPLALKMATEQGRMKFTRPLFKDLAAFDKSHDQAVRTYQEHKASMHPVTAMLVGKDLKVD
Method: The compounds were tested using human recombinant LTA4 hydrolase (Minami et al., FEBS Letters, 1988, 229: 279). The LTA4 hydrolase expressed by E. coli JM109 is purified mainly according to Minami et al., (J. Biol. Chem., 1987, 262: 13873).
The inhibition of the aminopeptidase activity of the enzyme is measured by means of a fluorimetric method in 96-well microplates. The recombinant enzyme (0.5 μg in 50 μl of 50 mM Tris-HCl pH 7.4) is preincubated for 10 minutes at 37° C. in the presence of inhibitor and of dithiothreitol (DTT, 10^−5 M). The substrate alanyl-amido-methylcoumarin (Ala-AMC, 25 μM-Tris HCl 50 mM, pH 7.4) is added and the incubation is continued for 15 minutes at 37° C. The release of AMC is measured by fluorimetry.

Ki [1] [nM] | melting point [°C] | Compound
32 | – | NC(CCCCOc1ccc(Cc2ccccc2)cc1)C(=O)O (racemic) [compound 51, 2-(RS)-amino-6-(4-benzylphenoxy)hexanoic acid hydrobromide]
– | 135 | Br.CCCCCCOc1ccc(OCCCCC(N)C(=O)O)cc1 (racemic)
– | 199 | Br.NC(CCCOc1ccc(Cc2ccccc2)cc1)C(=O)O (racemic)
– | 130 | Br.NC(CCCCOc1ccc(Oc2ccccc2)cc1)C(=O)O (racemic)
– | 100 | Br.NC(CCCCCOc1ccc(Cc2ccccc2)cc1)C(=O)O (racemic)
– | 185 | Br.NC(CCCCOc1ccc(-c2ccccc2)cc1)C(=O)O (racemic)
– | 162 | Br.NC(CCCOc1ccc(Oc2ccccc2)cc1)C(=O)O (racemic)
– | 120 | Br.NC(CCCCCCOc1ccc(Cc2ccccc2)cc1)C(=O)O (racemic)
